In US20240115881A1, “METHODS AND SYSTEMS FOR DETERMINING THE DISTRIBUTION OF RADIATION DOSE AND RESPONSE” (priority 2022, published 2024):
Several values for one entry are separate records, joined by “and”; a condition that tells them apart may be missing. Equal entries are not always repeated. Where two headings read alike, the source gives them in different places.

Columns and labels:
[1] = test system: MDA-MB-468 human breast cancer cell line grown as spheroids; details: cited from earlier work
V79 cells = experiment: cellular 210Po activity, biologic clearance and cellular dosimetry (liquid scintillation counting); type: cell-based, Chinese hamster; details: for intracellular 210Po activity: corresponding to 0.1 mmol/L citrate
Description: The absorbed dose to the cell nucleus was determined as known in the art. Since cells were treated with ^210Po-citrate as a single-cell suspension and were subsequently seeded for colony formation, the small contribution of cross-irradiation from neighboring cells in the colony can be ignored because it is essentially counterbalanced by the reduction in self-dose caused by flattening of cells during the colony forming period. The data was least-squares fitted to obtain a mean biologic half-time of 11.6 h. […] This Tc, the maintenance period of 2.5 h, the subcellular distribution of ^210Po-citrate (28% nucleus, 72% cytoplasm) for V79 cells and published S values, were used to calculate a mean absorbed dose to the cell nucleus of 5.8 Gy/mBq of ^210Po incorporated into the cell.
(§1) ^210PoCl4 in 2 mol/L HCI was obtained at 370 MBq/mL from Eckert&Ziegler Isotope Products (Valencia, CA, catalog no. 6310). ^210Po-citrate was prepared as follows. Briefly, PoCl4 solution was mixed with 1 mol/L sodium citrate in the ratio of 1:7 (final pH 5.8), and was diluted with MEMB to a volume of 4 mL (final pH 6.9). One milliliter of MEMB containing 210Po-citrate was added to the 1 mL of conditioned V79 cultures (2×10^6 cells/mL), to arrive at a concentration of 0-250 kBq/mL (pH 6.9-7.0). After incubating for 30 min, the cells were washed 2× with MEMB, resuspended in 2 mL of MEMB, and incubated on a rocker-roller for 2.5 h to simulate concomitant drug exposure. The cells were resuspended in a 5 mL of MEMB, passed 5× through a needle, and counted with a Beckman Coulter Model Z2 (Brea, CA). Aliquots (500 μL) of the cell suspension were transferred to vials, mixed with 5 mL Ecolume (MP Biomedical, Solon, OH, catalog no. 882470), and counted with a Beckman Coulter LS6500, and the mean activity per cell was determined (efficiency, 50% as per prior studies). Aliquots of about 5×10^5 cells were counted in triplicate for ^210Po activity and the cpm ranged from 10^3-10^5. The triplicate measurements kept statistical variations to a minimum. Each sample was serially diluted and plated in Falcon 60×15 mm tissue culture dishes for colony formation. Cultures were incubated for 7 days, and the colonies were fixed in 95% ethanol, stained with 0.01% Amido Black, washed in tap-water, air-dried, and counted.
To determine the biologic clearance of ^210Po from the cells, 4×10^6 cells/mL were treated with ^210Pocitrate as described above. After two washes with MEMB, the cells were resuspended in 5 mL of MEMB, passed 5× through a needle, and Coulter counted. Aliquots of 500 μL of cells were transferred to vials and mixed with Ecolume. The remaining cell suspension was plated into 25-cm^2 flasks (1.0, 0.5, 0.5, 0.2 and 0.2×10^6 cells/flask). The cultures were harvested after 24, 48, 72, and 96 h, respectively. Each sample was processed for cell counting and liquid scintillation counting as described. All vials were counted after the last harvest. The ratio of cellular activity at each time point to that immediately after treatment was calculated and plotted.

[2] = test system: Chinese hamster V79 lung fibroblasts; experiment: clonogenic survival assay (colony formation) after single-agent treatment; type: cell-based
Description: The surviving fraction SF of cells exposed to the agent was assessed with a clonogenic survival assay and plotted as a function of several different variables including extracellular concentration, <I>net, absorbed dose (Gy), and mean cellular activity (mBq/cell). The resulting survival curves were of a 1- or 2-component exponential form. Analogous to the cellular activity and absorbed dose required to achieve 37% survival, a37 and D37, the net mean lethal fluorescence intensity of the drug required to achieve 37% survival, <I>net37 , can be defined similarly and obtained from plots of SF versus <I>net.
To evaluate ^210Po cytotoxicity, the surviving fraction was plotted as a function of EuTc-citrate net MFI, mean cellular uptake of ^210Po, and mean absorbed dose to the nucleus (FIG. 4A). […] The relationships between cell survival and EuTc-citrate net MFI or cellular ^210Po activity can be described by an exponential function SF=exp(−A/A1). The relationship between cell survival and drug net MFI (or extracellular concentration) for daunomycin and doxorubicin are illustrated in FIGS. 4B and 4C, respectively. For both drugs, clonogenic survival and cellular drug uptake (as determined by net MFI) are related via two component exponential functions SF=b exp(−A/A1)+(1-b) exp(−A/A2). A is the intracellular activity of ^210Po-citrate, absorbed dose to the cell nucleus, or drug concentration. Least squares fits of the survival data to this function were performed. The variable b is a fitted parameter.
Chinese hamster V79 lung fibroblasts were used. Two different formulations of minimum essential media (MEMA and MEMB) were used, as known in the literature. All media and supplements were Gibco (Carlsbad, CA), including fetal calf serum (catalog no. 10437, lot no. 539574). For routine maintenance, cells were grown as monolayers in Falcon 25-cm^2 tissue culture flasks (BD, Franklin Lakes, NJ, catalog no. 353082) at 37° C., 5% CO2-95% air, and subcultured twice weekly. For experiments, V79 cells (passage 4-11) were transferred into Falcon 225-cm^2 flasks (BD, catalog no. 353138), and were used upon reaching 80%-90% confluence.
Cells grown in 225-cm^2 flasks were trypsinized (0.25% trypsin, Gibco, catalog no. 25200-056), and MEMB was added to obtain 2×10^6 cells/mL. Aliquots of 1 mL were placed in Falcon 17×100 mm polypropylene tubes (BD, catalog no. 352018) and placed on a rocker-roller (Thermo Fisher, Fair Lawn, NJ) for 3 hours at 37° C. with 5% CO2 and 95% air. After this conditioning period, cells were treated with drug or radiochemical. Cell cultures were exposed to radiochemical and drugs for 0.5 and 2.5 h, respectively.
as §1, with “Each sample was serially diluted and plated in Falcon 60×15 mm tissue culture dishes for colony formation. Cultures were incubated for 7 days, and the colonies were fixed in 95% ethanol, stained with 0.01% Amido Black, washed in tap-water, air-dried, and counted.” left out

[3] = test system: Chinese hamster V79 lung fibroblasts; details: obtained previously, older S values; cited from earlier work

Substance	activity distribution, cell surface ([1]; 24 h treatment)	activity distribution, cytoplasm ([1]; 24 h treatment)	activity distribution, nucleus ([1]; 24 h treatment)	distribution of 111In in the spheroid ([1]; after a 24-h treatment)	penetration into the spheroid ([1]; after a 1 h treatment)	distribution of 111In in the spheroid ([1]; treated for 1 h)	subcellular distribution, cytoplasm (V79 cells; V79 cells)	subcellular distribution, nucleus (V79 cells; V79 cells)	mean biologic half-time (V79 cells; clearance of 210Po from V79 cells)	intracellular 210Po activity (V79 cells)	intracellular 210Po activity (V79 cells; listed as 210Po)	effective half-time Te (V79 cells; from biologic half-time and physical half-life of 138 d)	cell kill at this activity ([2]; 0.1 mmol/L citrate)	atoms of 210Po corresponding to the mean lethal uptake ([2]; 0.21 mBq/cell)	uptake giving the mean lethal absorbed dose ([2]; V79 cells)	mean lethal absorbed dose ([2]; absorbed dose to the cell nucleus, V79 cells)	cell killing observed ([2]; over the range of cellular activities employed)	former value of mean lethal dose [3]
111In-DTPA-human epidermal growth factor [^111In-EGF]	62%	22%	16%	fully internalized	~20 μm	accumulated mainly on the periphery of the spheroid	–	–	–	–	–	–	–	–	–	–	–	–
^210Po-citrate	–	–	–	–	–	–	72%	28%	11.6 h	0.03 mBq/cell	0.03 mBq/cell and ~0.02 mBq/cell	11.6 h	no significant cell kill	about 3600 atoms	0.21 mBq/cell	1.2 Gy	less than 2 logs	0.7 Gy
